We go through 14 compounds from US12384756B2, “Piperidinedione derivatives” (INNOCURE THERAPEUTICS, INC., priority 2021, dated 2025).

Experiment [1] concerns Human breast cancer cell line [MDA-MB-231]. As to the kind of experiment: Anti-proliferative activity (WST-8) of BRD4 targeted PROTAC in MDA-MB-231. The format is cell-based. The note with it: Homo sapiens, MDA-MB-231, 72 hours. The procedure: (§1) Human breast cancer cell line [MDA-MB-231] was cultured in RPMI medium with 10% petal bovine serum, penicillin [100 U/ml] and streptomycin [[…]]. The synthesized compound was prepared as a stock solution of 10 mM or 50 mM dissolved in DMSO [dimethyl sulfoxide], and it was sequentially diluted to treat the cell line.
In order to observe inhibition of cell growth, cells were aliquoted into concentrations of 5,000 cells/well at 96 well plates, and then were treated with samples prepared at various concentrations for 72 hours. The cell survival was calculated by steps of adding in each well […] of water soluble tetrazolium salt (WST-8) which produces formazon in response to dehydrogenase present in the electron transport chain in mitochondria, incubating for 2 hours, measuring the absorbance at 450 nm, and calculating by GraphicPad Prism 8.0 software.

The target of a further experiment is BRD4 (Homo sapiens, UniProt O60885). As to the kind of experiment: BRD4 protein degradation by western blot in MDA-MB-231 cells. The arrangement: BRD4 expressed in cells; endogenous in cells; host or cells: MDA-MB-231. The note with it: MDA-MB-231, 24 hours; for DC50: 50% inhibition of protein expression, read-out: DC50 of BRD4-targeted PROTAC. In kind it is cell-based. The procedure:
as §1
To evaluate the PROTAC's degradation ability to BRD4 expressed in cells, the cells were aliquoted into a 6 well plate at a concentration of 5×10^5 cells/ml, and then the sample was treated for 24 hours. In order to conduct western blotting assay to confirm protein expression, the cell treated with the compound was treated for 30 minutes with 70 μL of RIPA buffer wherein protease inhibitor is added. Then, cell lysate was collected on ice using a scraper and centrifuged at 4° C. 15,000 rpm for 30 minutes to obtain a supernatant containing protein. Then, SDS-PAGE is conducted for 10 μg of protein per each sample, and the protein is transferred to a membrane. The protein is reacted with antibodies of anti-BRD4, anti-tubulin and anti-GAPDH at 4° C. for 16 hours, and then, reacted with secondary antibodies at room temperature for 1 hour. The protein expression is confirmed using SUPERSIGNAL™ WEST PICO PLUS chemiluminescence substrate and image analyzer. The protein expression was normalized based on the expression value of β-tublin or GAPDH. The amount of protein expression in each sample was measured in % based on the sample treated with 0.1% DMSO vehicle which was set to 100%. The amount of protein expression was quantified using the IMAGE J PROGRAM. The change in the amount of protein expression due to the treatment of compound (DC50: the concentration of compounds where the 50% inhibition of protein expression is achieved) was calculated using […] PRISM 8.0 software.
(In general: In western blotting, separated proteins are transferred to a membrane and probed.)

Setting [2] is: WST-8, read-out: IC50 of BRD4-targeted PROTAC (cell proliferation).
Where [3] appears, read: read-out: concentration at which cancer cell proliferation is effectively inhibited.

Like-named read-outs stand apart in the source and are kept apart here.

On to `Cc1sc2c(c1C)C(c1ccc(Cl)cc1)=N[C@@H](CC(=O)Nc1ccc(OCCOCCOCCOCCNc3ccc4cnn(C5CCC(=O)NC5=O)c(=O)c4c3)cc1)c1nnc(C)n1-2` (stereo partly drawn) [Ex. 29, 2-((S)-4-(4-chlorophenyl)-2,3,9-trimethyl-6H-thieno[3,2-f][1,2,4]triazolo[4,3-a][1,4]diazepin-6-yl)-N-(4-(2-(2-(2-(2-((3-(2,6-dioxopiperidin-3-yl)-4-oxo-3,4-dihydrophthalazin-6-yl)amino)ethoxy)ethoxy)ethoxy)ethoxy)phenyl)acetamide], for which the IC50 in experiment [1] (setting [2]) is 98.6 nM; in experiment [1] (setting [3]), less than 250 nM. For the same compound, the “BRD4 degradation (in words)” value on BRD4 was “effectively degraded”. Besides, the 50% degradation concentration (DC50) (in general, the concentration giving 50% degradation) on BRD4 came to 3.7 nM.
On to `Cc1sc2c(c1C)C(c1ccc(Cl)cc1)=N[C@@H](CC(=O)Nc1cccc(OCCOCCOCCNc3cccc4c(=O)n(C5CCC(=O)NC5=O)ncc34)c1)c1nnc(C)n1-2` (stereo partly drawn) [Ex. 30, 2-[(9S)-7-(4-chlorophenyl)-4,5,13-trimethyl-3-thia-1,8,11,12-tetraazatricyclo[8.3.0.0^2,6]trideca-2(6),4,7,10,12-pentaen-9-yl]-N-(3-{2-[2-(2-{[2-(2,6-dioxopiperidin-3-yl)-1-oxo-1,2-dihydrophthalazin-5-yl]amino}ethoxy)ethoxy]ethoxy}phenyl)acetamide], for which the IC50 in experiment [1] (setting [2]) is greater than 1000 nM.
Same read-out and setting: with `Cc1sc2c(c1C)C(c1ccc(Cl)cc1)=N[C@@H](CC(=O)NCc1cn(CCOCCOCCNc3cccc4cnn(C5CCC(=O)NC5=O)c(=O)c34)nn1)c1nnc(C)n1-2` (stereo partly drawn) [Ex. 31, 2-((S)-4-(4-chlorophenyl)-2,3,9-trimethyl-6H-thieno[3,2-f][1,2,4]triazolo[4,3-a][1,4]diazepin-6-yl)-N-((1-(2-(2-(2-((3-(2,6-dioxopiperidin-3-yl)-4-oxo-3,4-dihydrophthalazin-5-yl)amino)ethoxy)ethoxy)ethyl)-1H-1,2,3-triazol-4-yl)methyl)acetamide] the figure was greater than 1000 nM.
`Cc1sc2c(c1C)C(c1ccc(Cl)cc1)=N[C@@H](CC(=O)NCc1cn(CCOCCOCCOCCNc3cccc4cnn(C5CCC(=O)NC5=O)c(=O)c34)nn1)c1nnc(C)n1-2` (stereo partly drawn) [Ex. 32, 2-((S)-4-(4-chlorophenyl)-2,3,9-trimethyl-6H-thieno[3,2-f][1,2,4]triazolo[4,3-a][1,4]diazepin-6-yl)-N-((1-(2-(2-(2-(2-((3-(2,6-dioxopiperidin-3-yl)-4-oxo-3,4-dihydrophthalazin-5-yl)amino)ethoxy)ethoxy)ethoxy)ethyl)-1H-1,2,3-triazol-4-yl)methyl)acetamide]: in experiment [1] (setting [2]), the IC50 was greater than 1000 nM.
Consider `Cc1sc2c(c1C)C(c1ccc(Cl)cc1)=N[C@@H](CC(=O)NCc1cn(CCOCCOCCNc3cccc4c(=O)n(C5CCC(=O)NC5=O)ncc34)nn1)c1nnc(C)n1-2` (stereo partly drawn) [Ex. 33, 2-[(9S)-7-(4-chlorophenyl)-4,5,13-trimethyl-3-thia-1,8,11,12-tetraazatricyclo[8.3.0.0^2,6]trideca-2(6),4,7,10,12-pentaen-9-yl]-N-[(1-{2-[2-(2-{[2-(2,6-dioxopiperidin-3-yl)-1-oxo-1,2-dihydrophthalazin-5-yl]amino}ethoxy)ethoxy]ethyl}-1H-1,2,3-triazol-4-yl)methyl]acetamide], for which, in experiment [1] (setting [2]), the IC50 was greater than 1000 nM. Also, the half-maximal degradation concentration (DC50) on BRD4 was 171 nM.
For `Cc1sc2c(c1C)C(c1ccc(Cl)cc1)=N[C@@H](CC(=O)NCc1cn(CCOCCOCCOCCNc3cccc4c(=O)n(C5CCC(=O)NC5=O)ncc34)nn1)c1nnc(C)n1-2` (stereo partly drawn) [Example 34, 2-[(9S)-7-(4-chlorophenyl)-4,5,13-trimethyl-3-thia-1,8,11,12-tetraazatricyclo[8.3.0.0^2,6]trideca-2(6),4,7,10,12-pentaen-9-yl]-N-{[1-(2-{2-[2-(2-{[2-(2,6-dioxopiperidin-3-yl)-1-oxo-1,2-dihydrophthalazin-5-yl]amino}ethoxy)ethoxy]ethoxy}ethyl)-1H-1,2,3-triazol-4-yl]methyl}acetamide], in that order: greater than 1000 nM and 38.6 nM.
For `Cc1sc2c(c1C)C(c1ccc(Cl)cc1)=N[C@@H](CC(=O)NCCOCCOCCOCCn1cc(CNc3cccc4cnn(C5CCC(=O)NC5=O)c(=O)c34)nn1)c1nnc(C)n1-2` (stereo partly drawn) [Example 36, 2-[(9S)-7-(4-chlorophenyl)-4,5,13-trimethyl-3-thia-1,8,11,12-tetraazatricyclo[8.3.0.0^2,6]trideca-2(6),4,7,10,12-pentaen-9-yl]-N-{2-[2-(2-{2-[4-({[3-(2,6-dioxopiperidin-3-yl)-4-oxo-3,4-dihydrophthalazin-5-yl]amino}methyl)-1H-1,2,3-triazol-1-yl]ethoxy}ethoxy)ethoxy]ethyl}acetamide], in that order: greater than 1000 nM and 663 nM.
Take `Cc1sc2c(c1C)C(c1ccc(Cl)cc1)=N[C@@H](CC(=O)NCCCCCNc1ccc3c(=O)n(C4CCC(=O)NC4=O)ncc3c1)c1nnc(C)n1-2` (stereo partly drawn) [Example 37, 2-((S)-4-(4-chlorophenyl)-2,3,9-trimethyl-6H-thieno[3,2-f][1,2,4]triazolo[4,3-a][1,4]diazepin-6-yl)-N-(5-((2-(2,6-dioxopiperidin-3-yl)-1-oxo-1,2-dihydrophthalazin-6-yl)amino)pentyl)acetamide]: the IC50 in experiment [1] (setting [2]) was less than 1 nM. The IC50 in experiment [1] (setting [3]) is less than 250 nM. Besides, at BRD4, the “BRD4 degradation (in words)” value is “effectively degraded” and the DC50 is 0.173 nM.
For the compound `Cc1sc2c(c1C)C(c1ccc(Cl)cc1)=N[C@@H](CC(=O)NCCCN1CCN(CCCNc3cccc4cnn(C5CCC(=O)NC5=O)c(=O)c34)CC1)c1nnc(C)n1-2` (stereo partly drawn) [Example 38, 2-((S)-4-(4-chlorophenyl)-2,3,9-trimethyl-6H-thieno[3,2-f][1,2,4]triazolo[4,3-a][1,4]diazepin-6-yl)-N-(3-(4-(3-((3-(2,6-dioxopiperidin-3-yl)-4-oxo-3,4-dihydrophthalazin-5-yl)amino)propyl)piperazin-1-yl)propyl)acetamide], the IC50 in experiment [1] (setting [2]) is 568 nM. In addition, the DC50 on BRD4 was 66.5 nM.
Turning to `Cc1sc2c(c1C)C(c1ccc(Cl)cc1)=N[C@@H](CC(=O)NCCOc1cccc3c(=O)n(C4CCC(=O)NC4=O)ncc13)c1nnc(C)n1-2` (stereo partly drawn) [Example 46, 2-((S)-4-(4-chlorophenyl)-2,3,9-trimethyl-6H-thieno[3,2-f][1,2,4]triazolo[4,3-a][1,4]diazepin-6-yl)-N-(2-((2-(2,6-dioxopiperidin-3-yl)-1-oxo-1,2-dihydrophthalazin-5-yl)oxy)ethyl)acetamide], in experiment [1] (setting [2]), the IC50 was greater than 1000 nM.
On to `Cc1sc2c(c1C)C(c1ccc(Cl)cc1)=N[C@@H](CC(=O)NCC1CCN(c3cccc4cnn(C5CCC(=O)NC5=O)c(=O)c34)C1)c1nnc(C)n1-2` (stereo partly drawn) [Example 50, 2-((S)-4-(4-chlorophenyl)-2,3,9-trimethyl-6H-thieno[3,2-f][1,2,4]triazolo[4,3-a][1,4]diazepin-6-yl)-N-((1-(3-(2,6-dioxopiperidin-3-yl)-4-oxo-3,4-dihydrophthalazin-5-yl)pyrrolidin-3-yl)methyl)acetamide], for which the IC50 in experiment [1] (setting [2]) amounted to 622 nM.
`Cc1sc2c(c1C)C(c1ccc(Cl)cc1)=N[C@@H](CC(=O)NCCCCCNc1cccc3c(=O)n(C4CCC(=O)NC4=O)ncc13)c1nnc(C)n1-2` (stereo partly drawn) [Example 51, 2-[(9S)-7-(4-chlorophenyl)-4,5,13-trimethyl-3-thia-1,8,11,12-tetraazatricyclo[8.3.0.0^2,6]trideca-2(6),4,7,10,12-pentaen-9-yl]-N-(5-{[2-(2,6-dioxopiperidin-3-yl)-1-oxo-1,2-dihydrophthalazin-5-yl]amino}pentyl)acetamide]: in experiment [1] (setting [2]), the IC50 was found to be 101 nM.
Turning to `Cc1sc2c(c1C)C(c1ccc(Cl)cc1)=N[C@@H](CC(=O)NCCCCCNc1cccc3cnn(C4CCC(=O)NC4=O)c(=O)c13)c1nnc(C)n1-2` (stereo partly drawn) [Example 52, 2-[(9S)-7-(4-chlorophenyl)-4,5,13-trimethyl-3-thia-1,8,11,12-tetraazatricyclo[8.3.0.0^2,6]trideca-2(6),4,7,10,12-pentaen-9-yl]-N-(5-{[3-(2,6-dioxopiperidin-3-yl)-4-oxo-3,4-dihydrophthalazin-5-yl]amino}pentyl)acetamide], the IC50 in experiment [1] (setting [2]) was determined as 127 nM.
`Cc1sc2c(c1C)C(c1ccc(Cl)cc1)=N[C@@H](CC(=O)NCC1CCN(c3cccc4cnn(C5CCC(=O)NC5=O)c(=O)c34)CC1)c1nnc(C)n1-2` (stereo partly drawn) [Example 53, 2-((S)-4-(4-chlorophenyl)-2,3,9-trimethyl-6H-thieno[3,2-f][1,2,4]triazolo[4,3-a][1,4]diazepin-6-yl)-N-((1-(3-(2,6-dioxopiperidin-3-yl)-4-oxo-3,4-dihydrophthalazin-5-yl)piperidine-4-yl)methyl)acetamide]: the IC50 in experiment [1] (setting [2]) was greater than 1000 nM.
